Source: publication PMC5297980 (Clinical Pharmacology in Drug Development, 2016)
Each block holds one molecule with its values, some of them ahead of it.

How the values were obtained:
[1] = Phase 1 methotrexate-isavuconazole interaction study, plasma PK; assay type: in vivo, human
[2] = cited from earlier work
[3] = Phase 1 digoxin-isavuconazole interaction study, plasma PK; assay type: in vivo, human
P‐gp = conditions: in vitro studies; cited from earlier work
[4] = test system: organic anion‐transporting polypeptide 1B1 (OATP1B1); conditions: HEK293 cells, [^3H]estradiol 17β‐D‐glucuronide substrate; ref data on file; cited from earlier work
OCT2 = conditions: HEK293 cells, [^14C]metformin substrate; ref data on file; cited from earlier work
OAT3 = conditions: HEK293 cells, [^3H]estrone sulfate substrate; ref data on file; cited from earlier work
[5] = Phase 1 atorvastatin-isavuconazole interaction study, plasma PK; conditions: human, oral, 200 mg
[6] = Phase 1 metformin-isavuconazole interaction study, plasma PK
[7] = test system: multidrug and toxin extrusion 1 (MATE1); conditions: HEK293 cells, [^14C]metformin substrate; ref data on file; cited from earlier work
[8] = test system: organic anion transporter 1 (OAT1); conditions: HEK293 cells, [^3H]‐p‐aminohippuric acid substrate; ref data on file; cited from earlier work
[9] = test system: organic cation transporter 1 (OCT1); conditions: HEK293 cells, [^14C]tetraethylammonium bromide; ref data on file; cited from earlier work
[10] = OATP1B1 substrate; cited from earlier work
[11] = methotrexate + isavuconazole (day 8), mean (SD)
[12] = methotrexate + isavuconazole vs methotrexate alone
[13] = methotrexate alone (day 1), mean (SD)

AUC∞ ([1]; methotrexate 7.5 mg single oral dose alone (day 1), mean (SD)): 635.8 (309.3) h·ng/mL
AUClast [1, 11]: 683.2 (272.5) h·ng/mL
Cmax [1, 11]: 36.7 (14.0) ng/mL
t1/2 [1, 11]: 13.0 (2.3) h
Tmax ([1]; methotrexate + isavuconazole (day 8), median (range)): 6.0 (3.5‐10.0) h
AUClast geometric least‐squares mean ratio (90% confidence interval) [1, 12]: 124 (114, 135) %
AUC∞ geometric least‐squares mean ratio (90% confidence interval) [1, 12]: 129 (119, 141) %
Cmax geometric least‐squares mean ratio (90% confidence interval) [1, 12]: 115 (104, 127) %
AUClast [1, 13]: 554.6 (242.6) h·ng/mL
Cmax [1, 13]: 32.1 (13.4) ng/mL
t1/2 [1, 13]: 11.9 (2.9) h
Tmax ([1]; methotrexate alone (day 1), median (range)): 6.0 (5.0‐10.0) h
Mean AUClast higher during concomitant administration with isavuconazole ([1]; vs methotrexate alone): 24%
Mean AUC∞ higher during concomitant administration with isavuconazole ([1]; vs methotrexate alone): 29%
Mean Cmax higher during concomitant administration with isavuconazole ([1]; vs methotrexate alone): 15%
Structure (SMILES): CN(Cc1nc2c(N)nc(N)nc2[nH]c1=O)c1ccc(C(=O)N[C@@H](CCC(=O)O)C(=O)O)cc1 [7‐Hydroxymethotrexate, 7‐hydroxymethotrexate]

Structure (SMILES): CC[C@@H]([C@H](C)O)n1ncn(-c2ccc(N3CCN(c4ccc(OC[C@@H]5CO[C@@](Cn6cncn6)(c6ccc(F)cc6F)C5)cc4)CC3)cc2)c1=O [Posaconazole]
effect on plasma concentrations of digoxin ([2]; ref NOXAFIL package insert): increase plasma concentrations of digoxin

Mean AUClast higher in the presence vs absence of isavuconazole ([3]; digoxin study): 24%
Mean AUC∞ higher in the presence vs absence of isavuconazole ([3]; digoxin study): 25%
Mean Cmax higher in the presence vs absence of isavuconazole ([3]; digoxin study): 33%
AUC(0-t) ([3]; human, plasma, oral, 0.5 mg): 0.0329 µg·h/mL
Cmax ([3]; human, plasma, oral, 0.5 mg): 0.0016 µg/mL
half-life ([3]; human, plasma, oral, 0.5 mg): 40.9 h
AUC(0-inf) ([3]; human, plasma, po, 0.5 mg): 0.0344 µg·h/mL
Structure (SMILES): C[C@H]1O[C@@H](O[C@H]2[C@@H](O)C[C@H](O[C@H]3[C@@H](O)C[C@H](O[C@H]4CC[C@@]5(C)[C@H](CC[C@@H]6[C@@H]5C[C@@H](O)[C@]5(C)[C@@H](C7=CC(=O)OC7)CC[C@]65O)C4)O[C@@H]3C)O[C@@H]2C)C[C@H](O)[C@@H]1O [Digoxin, digoxin]

Structure (SMILES): OC(Cn1cncn1)(Cn1cncn1)c1ccc(F)cc1F [fluconazole]
inhibition of P‐gp‐mediated active transport (P‐gp): not an inhibitor

Structure (SMILES): CCC(C)n1ncn(-c2ccc(N3CCN(c4ccc(OCC5COC(Cn6cncn6)(c6ccc(Cl)cc6Cl)O5)cc4)CC3)cc2)c1=O (stereo not drawn) [itraconazole]
increase in plasma digoxin concentrations during coadministration [2]: approximately 80%

Cmax ([1]; human, plasma, oral, 7.5 mg): 0.156 µg/mL
Tmax ([1]; human, plasma, oral, 7.5 mg): 1 h
AUC(0-inf) ([1]; human, plasma, po, 7.5 mg): 0.62 µg·h/mL
Mean AUClast lower when coadministered with isavuconazole ([1]; vs methotrexate alone): 3%
Mean AUC∞ lower when coadministered with isavuconazole ([1]; vs methotrexate alone): 3%
Mean Cmax lower when coadministered with isavuconazole ([1]; vs methotrexate alone): 11%
Structure (SMILES): CN(Cc1cnc2nc(N)nc(N)c2n1)c1ccc(C(=O)N[C@@H](CCC(=O)O)C(=O)O)cc1 [Methotrexate, methotrexate]

Structure (SMILES): C[C@@H](c1nc(-c2ccc(C#N)cc2)cs1)[C@](O)(Cn1cncn1)c1cc(F)ccc1F [Isavuconazole, isavuconazole]
IC50 [4]: 11.2 µM
IC50 (OCT2): 1.97 µM
Ki (OCT2): 0.69 µM
IC50 (OAT3): > 10 µM
AUC [5]: 77.3 µg·h/mL
Cmax [5]: 5.3 µg/mL
Tmax [5]: 3 h
AUC ([3]; human, plasma, oral, 200 mg): 102 µg·h/mL
Cmax ([3]; human, plasma, oral, 200 mg): 6.1 µg/mL
Tmax ([3]; human, plasma, oral, 200 mg): 3 h
AUC ([6]; human, plasma, oral, 200 mg): 106 µg·h/mL
Cmax ([6]; human, plasma, oral, 200 mg): 7.1 µg/mL
Tmax ([6]; human, plasma, oral, 200 mg): 3 h
IC50 [7]: 6.31 µM
AUC ([1]; human, plasma, oral, 200 mg): 99.4 µg·h/mL
Cmax ([1]; human, plasma, oral, 200 mg): 6.2 µg/mL
Tmax ([1]; human, plasma, oral, 200 mg): 3 h
IC50 [8]: > 10 µM
IC50 [9]: 3.74 µM
Ki [9]: 1.74 µM

Structure (SMILES): CCOc1cc(CC(=O)N[C@@H](CC(C)C)c2ccccc2N2CCCCC2)ccc1C(=O)O [repaglinide]
PK in the presence and absence of isavuconazole [10]: unchanged

AUC(0-t) ([6]; human, plasma, oral, 850 mg): 9.12 µg·h/mL
Tmax ([6]; metformin + isavuconazole (day 8), median (range)): 2.0 (1.0‐4.0) h
Cmax ([6]; metformin alone (day 1), mean (SD)): 1467 (449) ng/mL
Tmax ([6]; metformin alone (day 1), median (range)): 2.5 (1.0‐6.0) h
AUC∞ ([6]; metformin hydrochloride 850 mg single oral dose alone (day 1), mean (SD)): 9303 (2543) h·ng/mL
Mean AUClast higher in the presence vs absence of isavuconazole ([6]; metformin study): 50%
Mean AUC∞ higher in the presence vs absence of isavuconazole ([6]; metformin study): 52%
Mean Cmax higher in the presence vs absence of isavuconazole ([6]; metformin study): 23%
Structure (SMILES): CN(C)C(=N)N=C(N)N [Metformin, metformin]
